Experiment [1] has as its target PIM-1 (Homo sapiens (Human), UniProt P11309). The experiment is described as follows: PIM-1 Enzyme Assay. In kind it is biochemical. The procedure: The amount of radiolabeled product is then measured by liquid scintillation counting. The final buffer conditions were as follows: 20 mM K^+MOPS, pH 7.4, 10 mM MgCl2, 0.005% Tween-20, 1 mM DTT. […] Incubations were carried out for 60 min at 22° C. and quenched with 75 μL of 200 mM H3PO4, filtered through a Whatman P81 plate and washed (1×200 μL and 5×100 μL ) with 200 mM H3PO4. Liquid scintillation cocktail (50 μL ) was then added per well, and the plate was counted for 30 s/well using a TopCount NXT.
One-μL aliquots of these were then transferred to the assay mixtures above to give a final concentration of DMSO of 2%. […] For each plate, percent of control (POC) values were calculated for each well. IC50's were estimated from the POC's using a standard 4-parameter logistic model. The IC50 is defined as the concentration of inhibitor at which the POC equals 50 for the fitted curve.

The target of experiment [2] is GST-tagged recombinant full-length human PIM-2 (Homo sapiens (Human), UniProt Q9P1W9). The experiment is described as follows: PIM-2 Enzyme Assay. As to conditions: read-out: PIM-2 IC50.
Chain of GST-tagged recombinant full-length human PIM-2 (Q9P1W9 whole entry): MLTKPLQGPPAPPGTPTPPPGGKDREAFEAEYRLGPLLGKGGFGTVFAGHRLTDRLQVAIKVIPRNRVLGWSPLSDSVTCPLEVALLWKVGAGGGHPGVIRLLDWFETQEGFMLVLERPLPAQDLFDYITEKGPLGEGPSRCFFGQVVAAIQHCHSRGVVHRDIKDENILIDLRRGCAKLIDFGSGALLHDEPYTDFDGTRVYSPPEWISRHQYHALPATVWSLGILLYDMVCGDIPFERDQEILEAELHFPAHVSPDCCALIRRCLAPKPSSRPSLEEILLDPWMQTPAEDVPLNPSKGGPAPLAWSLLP

Consider 31 compounds from US8575145B2, “Triazolopyridine compounds as PIM kinase inhibitors” (Array BioPharma Inc., priority 2008, dated 2013).

What is called IC50 is the concentration that gives 50% inhibition.

Molecules are shown by their SMILES. Structures can show the parent of a compound that is named as a salt. Where two headings read alike, the source gives them in different places.

Chain of PIM-1 (P11309 whole entry, species assumed): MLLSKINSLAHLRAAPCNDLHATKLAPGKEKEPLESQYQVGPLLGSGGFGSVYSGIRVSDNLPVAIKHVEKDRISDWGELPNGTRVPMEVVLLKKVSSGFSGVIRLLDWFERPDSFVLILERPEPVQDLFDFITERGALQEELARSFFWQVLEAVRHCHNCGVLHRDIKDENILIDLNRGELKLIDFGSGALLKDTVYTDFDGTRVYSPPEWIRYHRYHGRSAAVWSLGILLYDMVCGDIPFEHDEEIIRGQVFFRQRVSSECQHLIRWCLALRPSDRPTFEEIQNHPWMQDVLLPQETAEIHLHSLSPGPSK

As to `OC1(COc2cccc3ccc(-c4nnc5ccccn45)nc23)CCNCC1` [Example 72], the IC50 in experiment [1] (35 μM ATP, 0.25 nM PIM-1) was 5.3 nM; in experiment [2] (4 μM ATP, […] PIM-2) it was 588 nM.

Take `c1cc(Oc2ccncc2)c2nc(-c3nnc4ccccn34)ccc2c1` [Example 74, 2-([1,2,4]triazolo[4,3-a]pyridin-3-yl)-8-(pyridin-4-yloxy)quinoline]: the IC50 in experiment [1] (35 μM ATP, 0.25 nM PIM-1) turned out to be 151 nM; in experiment [2] (4 μM ATP, […] PIM-2), 1990 nM.

As to `Nc1cc(Oc2cccc3ccc(-c4nnc5ccccn45)nc23)ccn1` [Example 75, 4-(2-([1,2,4]triazolo[4,3-a]pyridin-3-yl)quinolin-8-yloxy)pyridin-2-amine], the IC50 in experiment [1] (35 μM ATP, 0.25 nM PIM-1) turned out to be 263 nM; in experiment [2] (4 μM ATP, […] PIM-2), 8940 nM.

Consider `Nc1nccc(Oc2cccc3ccc(-c4nnc5ccccn45)nc23)n1` [Example 76, 4-(2-([1,2,4]triazolo[4,3-a]pyridin-3-yl)quinolin-8-yloxy)pyrimidin-2-amine], for which the IC50 in experiment [1] (35 μM ATP, 0.25 nM PIM-1) was 648 nM; in experiment [2] (4 μM ATP, […] PIM-2), 10000 nM.

In the case of `FC1(COc2cccc3ccc(-c4nnc5ccc(Br)cn45)nc23)CCNCC1` [Example 77, 2-(6-bromo-[1,2,4]triazolo[4,3-a]pyridin-3-yl)-8-((4-fluoropiperidin-4-yl)methoxy)-quinoline dihydrochloride], the IC50 in experiment [1] (35 μM ATP, 0.25 nM PIM-1) worked out at 17 nM; in experiment [2] it was 1390 nM.

In the case of `FC1(COc2cccc3ccc(-c4nnc5ccc(C6CC6)cn45)nc23)CCNCC1` [Example 79, 2-(6-cyclopropyl-[1,2,4]triazolo[4,3-a]pyridin-3-yl)-8-((4-fluoropiperidin-4-yl)methoxy)quinoline dihydrochloride], the IC50 is 0.2 nM in experiment [1] (35 μM ATP, 0.25 nM PIM-1) and 55 nM in experiment [2] (4 μM ATP, […] PIM-2).

Turning to `FC1(COc2cccc3ccc(-c4nnc5ccc(-c6ccccc6)cn45)nc23)CCNCC1` [Example 81, 8-((4-fluoropiperidin-4-yl)methoxy)-2-(6-phenyl-[1,2,4]triazolo[4,3-a]pyridin-3-yl)quinoline dihydrochloride], the IC50 in experiment [1] came to 0.45 nM; in experiment [2] (4 μM ATP, […] PIM-2) it was 142 nM.

`NC(=O)CN1CCC(F)(COc2cccc3ccc(-c4nnc5ccccn45)nc23)CC1` [Example 83, 2-(4-((2-([1,2,4]triazolo[4,3-a]pyridin-3-yl)quinolin-8-yloxy)methyl)-4-fluoropiperidin-1-yl)acetamide]: the IC50 in experiment [1] (35 μM ATP, 0.25 nM PIM-1) worked out at 4 nM; in experiment [2] (4 μM ATP, […] PIM-2), 193 nM.

Take `CN1CCC(F)(COc2cccc3ccc(-c4nnc5ccccn45)nc23)CC1` [Example 84, 2-([1,2,4]triazolo[4,3-a]pyridin-3-yl)-8-((4-fluoro-1-methylpiperidin-4-yl)methoxy)quinoline dihydrochloride]: the IC50 is 2 nM in experiment [1] and 73 nM in experiment [2] (4 μM ATP, […] PIM-2).

In the case of `OCCN1CCC(F)(COc2cccc3ccc(-c4nnc5ccccn45)nc23)CC1` [Example 85, 2-(4-((2-([1,2,4]triazolo[4,3-a]pyridin-3-yl)quinolin-8-yloxy)methyl)-4-fluoropiperidin-1-yl)ethanol dihydrochloride], the IC50 in experiment [1] (35 μM ATP, 0.25 nM PIM-1) came to 2 nM; in experiment [2], 105 nM.

`Fc1cc(OC2CCNCC2(F)F)c2nc(-c3nnc4ccccn34)ccc2c1` (centres unmarked) [Example 93, 2-([1,2,4]triazolo[4,3-a]pyridin-3-yl)-8-(3,3-difluoropiperidin-4-yloxy)-6-fluoroquinoline dihydrochloride]: the IC50 in experiment [1] (35 μM ATP, 0.25 nM PIM-1) turned out to be 4.4 nM; in experiment [2] (4 μM ATP, […] PIM-2), 506 nM.

For `Fc1ccc2nnc(-c3ccc4cccc(OCC5(F)CCNCC5)c4n3)n2c1` [Example 103, 2-(6-fluoro-[1,2,4]triazolo[4,3-a]pyridin-3-yl)-8-((4-fluoropiperidin-4-yl)methoxy)quinoline dihydrochloride], the IC50 in experiment [1] (35 μM ATP, 0.25 nM PIM-1) came out at 1.4 nM; in experiment [2], 65.6 nM.

On to `CCN1CCC(F)(COc2cccc3ccc(-c4nnc5ccccn45)nc23)CC1` [Example 104, 2-([1,2,4]triazolo[4,3-a]pyridin-3-yl)-8((1-ethyl-4-fluoropiperidin-4-yl)methoxy)quinoline dihydrochloride], for which the IC50 was determined as 3.9 nM in experiment [1] (35 μM ATP, 0.25 nM PIM-1) and 191 nM in experiment [2] (4 μM ATP, […] PIM-2).

On to `FCCN1CCC(F)(COc2cccc3ccc(-c4nnc5ccccn45)nc23)CC1` [Example 105, 2-([1,2,4]triazolo[4,3-a]pyridin-3-yl)-8-((4-fluoro-1-(2-fluoroethyl)piperidin-4-yl)methoxy)quinoline dihydrochloride], for which the IC50 in experiment [1] (35 μM ATP, 0.25 nM PIM-1) was found to be 8.7 nM; in experiment [2] (4 μM ATP, […] PIM-2) it was 409 nM.

As for `Fc1cc(OCC2(F)CCNCC2)c2nc(-c3nnc4ccccn34)ccc2c1` [Example 106, 2-([1,2,4]triazolo[4,3-a]pyridin-3-yl)-6-fluoro-8-((4-fluoropiperidin-4-yl)methoxy)quinoline dihydrochloride], the IC50 in experiment [1] (35 μM ATP, 0.25 nM PIM-1) amounted to 0.5 nM; in experiment [2] (4 μM ATP, […] PIM-2), 25.4 nM.

As for `FC1(COc2cccc3ccc(-c4nnc5ccccn45)nc23)CNC1` [Example 107, 2-([1,2,4]triazolo[4,3-a]pyridin-3-yl)-8-((3-fluoroazetidin-3-yl)methoxy)quinoline dihydrochloride], the IC50 was found to be 9.4 nM in experiment [1] (35 μM ATP, 0.25 nM PIM-1) and 1000 nM in experiment [2] (4 μM ATP, […] PIM-2).

Consider `Fc1cc(OCC2(F)CNC2)c2nc(-c3nnc4ccccn34)ccc2c1` [Example 108, 2-([1,2,4]triazolo[4,3-a]pyridin-3-yl)-6-fluoro-8-((3-fluoroazetidin-3-yl)methoxy)quinoline Dihydrochloride], for which the IC50 in experiment [1] is 7.3 nM; in experiment [2] (4 μM ATP, […] PIM-2), 489 nM.

On to `COc1ccc2nnc(-c3ccc4cccc(OCC5(F)CCNCC5)c4n3)n2c1` [Example 109, 8((4-fluoropiperidin-4-yl)methoxy)-2-(6-methoxy-[1,2,4]triazolo[4,3-a]pyridin-3-yl)quinoline dihydrochloride], for which the IC50 in experiment [1] (35 μM ATP, 0.25 nM PIM-1) was found to be 4.7 nM; in experiment [2] (4 μM ATP, […] PIM-2) it was 384 nM.

For `COc1ccc2nnc(-c3ccc4cc(F)cc(OCC5(F)CCNCC5)c4n3)n2c1` [Example 110, 6-fluoro-8-((4-fluoropiperidin-4-yl)methoxy)-2-(6-methoxy-[1,2,4]triazolo[4,3-a]pyridin-3-yl)quinoline dihydrochloride], the IC50 in experiment [1] (35 μM ATP, 0.25 nM PIM-1) is 1.9 nM; in experiment [2] (4 μM ATP, […] PIM-2), 163 nM.

In the case of `COC1(COc2cc(F)cc3ccc(-c4nnc5ccccn45)nc23)CCCNCC1` (centres unmarked) [Example 114, 2-([1,2,4]triazolo[4,3-a]pyridin-3-yl)-6-fluoro-8-((4-methoxyazepan-4-yl)methoxy)quinoline bis-trifluoroacetate], the IC50 in experiment [1] (35 μM ATP, 0.25 nM PIM-1) worked out at 0.7 nM; in experiment [2] (4 μM ATP, […] PIM-2), 86 nM.

As for `COC1(COc2cc(F)cc3ccc(-c4nnc5ccccn45)nc23)CCCN(CCO)CC1` (centres unmarked) [Example 115, 2-(4-42-([1,2,4]triazolo[4,3-a]pyridin-3-yl)-6-fluoroquinolin-8-yloxy)methyl)-4-methoxyazepan-1-yl)ethanol dihydrochloride], the IC50 in experiment [1] (35 μM ATP, 0.25 nM PIM-1) amounted to 1.4 nM; in experiment [2] (4 μM ATP, […] PIM-2) it was 222 nM.

Regarding `OC1(COc2cccc3ccc(-c4nnc5ccccn45)nc23)CCCNCC1` (centres unmarked) [Example 116, 4-((2-([1,2,4]triazolo[4,3-a]pyridin-3-yl)quinolin-8-yloxy)methyl)azepan-4-ol bis-trifluoroacetate], the IC50 in experiment [1] (35 μM ATP, 0.25 nM PIM-1) was determined as 11.8 nM; in experiment [2] it was 1000 nM.

Take `COC1(COc2cccc3ccc(-c4nnc5ccccn45)nc23)CCCNCC1` (centres unmarked) [Example 117, 2-([1,2,4]triazolo[4,3-a]pyridin-3-yl)-8-((4-methoxyazepan-4-yl)methoxy)quinoline dihydrochloride]: the IC50 in experiment [1] (35 μM ATP, 0.25 nM PIM-1) amounted to 1 nM; in experiment [2] (4 μM ATP, […] PIM-2), 91.5 nM.

As to `CN1CCC(F)C(Oc2cccc3ccc(-c4nnc5ccccn45)nc23)CC1` (centres unmarked) [Example 119], the IC50 in experiment [1] (35 μM ATP, 0.25 nM PIM-1) came to 1.3 nM; in experiment [2] (4 μM ATP, […] PIM-2), 574 nM.

As to `Cc1ccn2c(-c3ccc4cccc(OCC(C)(C)CN)c4n3)nnc2c1` [Example 123, 2,2-dimethyl-3-(2-(7-methyl-[1,2,4]triazolo[4,3-a]pyridin-3-yl)quinolin-8-yloxy)propan-1-amine trihydrochloride], the IC50 in experiment [1] (35 μM ATP, 0.25 nM PIM-1) was found to be 0.9 nM; in experiment [2] (4 μM ATP, […] PIM-2), 156 nM.

As for `F[C@@H]1CNCC[C@@H]1Oc1cccc2ccc(-c3nnc4cc(Cl)ccn34)nc12` [Example 124, 2-(7-chloro-[1,2,4]triazolo[4,3-a]pyridin-3-yl)-8-((3R,4S)-3-fluoropiperidin-4-yloxy)quinoline], the IC50 in experiment [1] (35 μM ATP, 0.25 nM PIM-1) turned out to be 31 nM; in experiment [2] (4 μM ATP, […] PIM-2), 1000 nM.

`COC1(COc2cccc3ccc(-c4nnc5cc(C)ccn45)nc23)CCNCC1` [Example 125, 8((4-methoxypiperidin-4-yl)methoxy)-2-(7-methyl-[1,2,4]triazolo[4,3-a]pyridin-3-yl)quinoline di-trifluoroacetate]: the IC50 in experiment [1] (35 μM ATP, 0.25 nM PIM-1) was 1 nM; in experiment [2] (4 μM ATP, […] PIM-2), 429 nM.

`c1cc(OCC2CNCCO2)c2nc(-c3nnc4ccccn34)ccc2c1` (centres unmarked) [Example 126]: the IC50 in experiment [1] (35 μM ATP, 0.25 nM PIM-1) is 14.2 nM; in experiment [2] (4 μM ATP, […] PIM-2), 354 nM.

For `NCC1(COc2cccc3ccc(-c4nnc5ccccn45)nc23)CCCC1` [Example 129, (1-((2-([1,2,4]triazolo[4,3-a]pyridin-3-yl)quinolin-8-yloxy)methyl)cyclopentyl)methanamine], the IC50 in experiment [1] (35 μM ATP, 0.25 nM PIM-1) was determined as 4.9 nM; in experiment [2] (4 μM ATP, […] PIM-2) it was 1000 nM.

For `CCC(CO)COc1cccc2ccc(-c3nnc4ccccn34)nc12` (centres unmarked) [Example 130], the IC50 is 5.8 nM in experiment [1] (35 μM ATP, 0.25 nM PIM-1) and 1000 nM in experiment [2] (4 μM ATP, […] PIM-2).

On to `FC1(COc2cccc3ccc(-c4nnc5ccccn45)nc23)CCCNC1` (centres unmarked) [Example 133, 2-([1,2,4]triazolo[4,3-a]pyridin-3-yl)-8-((3-fluoropiperidin-3-yl)methoxy)quinoline], for which the IC50 in experiment [1] (35 μM ATP, 0.25 nM PIM-1) was 1.6 nM; in experiment [2] (4 μM ATP, […] PIM-2), 142 nM.
